Laboratory results: patent US9403756B2, “N-phenyl anthranilic acid derivatives and uses thereof” (Ramot at Tel-Aviv University Ltd., priority 2007, dated 2016)

Legend:
Assay type in all cases: cell-based
[1] = target: T1, TRPV1 channel (Homo sapiens, UniProt Q8NER1); experiment: TRPV1 currents in transfected CHO cells activated with capsaicin; settings: 0.5 μM capsaicin
T1 construct: expressed in transfected cells; host or cells: CHO cells
Experimental: Chinese hamster ovary (CHO) cells were grown in Dulbecco's modified Eagle's medium (DMEM) supplemented with 2 mM glutamine, 10% fetal calf serum and antibiotics. Briefly, 40,000 cells seeded on poly-D-lysine-coated glass coverslips (13 mm diameter) in a 24-multiwell plate were transfected with pIRES-CD8 (0.5 μg) as a marker for transfection, and with Kv7.2 (0.5 μg) and Kv7.3 (0.5 μg) or TRPV1 […] or TRPV6 […].
For electrophysiology, transfected cells were visualized approximately 40 hours following transfection, using anti-CD8 antibody-coated beads. Transfection was performed using Fugene 6 (Roche, Indianapolis Ind., USA) according to the manufacturer's protocol.
Voltage-clamp recordings in CHO cells were performed, using the whole-cell configuration of the patch-clamp technique. Signals were amplified using an Axopatch 200B patch-clamp amplifier (Molecular Devices, Sunnyvale, Calif.), sampled at 2 kHz and filtered at 800 Hz via a 4-pole Bessel low pass filter. Data were acquired using pClamp 9.2 software (Molecular Devices) and an IBM compatible Pentium IV computer in conjunction with a DigiData 1322A interface (Molecular Devices). The patch pipettes were pulled from borosilicate glass (Warner Instrument Corp, USA) with a resistance of 2-5 MΩ. […] Series resistances (3-13 MΩ) were compensated (75-90%) and periodically monitored. […]

[2] = target: T2, Kv 7.1 (Homo sapiens, UniProt P51787); experiment: Kv channel selectivity, Xenopus oocytes: Kv7.1; settings: for Fold current amplitude: +30 mV, Xenopus oocytes
T2 construct: expressed in transfected cells; host or cells: Xenopus oocytes
T2 sequence (P51787 whole entry): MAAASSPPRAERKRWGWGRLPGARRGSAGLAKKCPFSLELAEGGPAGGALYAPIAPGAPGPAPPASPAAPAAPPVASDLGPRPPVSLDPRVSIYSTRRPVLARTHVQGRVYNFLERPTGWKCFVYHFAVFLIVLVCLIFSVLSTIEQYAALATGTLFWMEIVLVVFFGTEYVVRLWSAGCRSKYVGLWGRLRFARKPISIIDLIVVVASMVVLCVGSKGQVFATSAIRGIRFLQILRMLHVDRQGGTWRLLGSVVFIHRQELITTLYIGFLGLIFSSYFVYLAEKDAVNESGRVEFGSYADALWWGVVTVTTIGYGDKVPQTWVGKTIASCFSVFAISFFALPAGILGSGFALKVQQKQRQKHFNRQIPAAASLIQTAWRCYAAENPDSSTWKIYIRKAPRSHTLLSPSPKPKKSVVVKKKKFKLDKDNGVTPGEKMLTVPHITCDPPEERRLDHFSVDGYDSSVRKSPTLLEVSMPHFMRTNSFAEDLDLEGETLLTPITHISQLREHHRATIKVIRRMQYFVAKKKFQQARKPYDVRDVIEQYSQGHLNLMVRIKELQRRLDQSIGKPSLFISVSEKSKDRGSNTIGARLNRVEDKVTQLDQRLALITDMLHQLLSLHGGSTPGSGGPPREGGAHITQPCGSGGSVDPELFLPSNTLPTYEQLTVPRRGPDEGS
Experimental: (§1) Voltage-clamp measurements in Xenopus oocytes were performed as previously described.
(§2) The selectivity of NH29 on other relevant Kv channels expressed in Xenopus oocytes was also studied, and the results are summarized in Table 3 below. The specificity of NH29 at 25 μM and 50 μM towards various Kv channels was tested in Xenopus oocytes, except for Kv1.2 which was checked in transfected CHO cells. The current amplitude of the various Kv channels was tested at the indicated voltages and the effect of the drugs was expressed as fold of the control amplitude measured under the same conditions in the absence of the drug. The data in Table 3 are expressed as mean±SEM of 5-7 separate experiments.

[3] = target: T3, Kv11.1 or Herg (Homo sapiens, UniProt Q12809); experiment: Kv channel selectivity, Xenopus oocytes: Kv11.1; settings: 25 μM, −10 mV
T3 construct: expressed in transfected cells; host or cells: Xenopus oocytes
T3 sequence (Q12809 whole entry): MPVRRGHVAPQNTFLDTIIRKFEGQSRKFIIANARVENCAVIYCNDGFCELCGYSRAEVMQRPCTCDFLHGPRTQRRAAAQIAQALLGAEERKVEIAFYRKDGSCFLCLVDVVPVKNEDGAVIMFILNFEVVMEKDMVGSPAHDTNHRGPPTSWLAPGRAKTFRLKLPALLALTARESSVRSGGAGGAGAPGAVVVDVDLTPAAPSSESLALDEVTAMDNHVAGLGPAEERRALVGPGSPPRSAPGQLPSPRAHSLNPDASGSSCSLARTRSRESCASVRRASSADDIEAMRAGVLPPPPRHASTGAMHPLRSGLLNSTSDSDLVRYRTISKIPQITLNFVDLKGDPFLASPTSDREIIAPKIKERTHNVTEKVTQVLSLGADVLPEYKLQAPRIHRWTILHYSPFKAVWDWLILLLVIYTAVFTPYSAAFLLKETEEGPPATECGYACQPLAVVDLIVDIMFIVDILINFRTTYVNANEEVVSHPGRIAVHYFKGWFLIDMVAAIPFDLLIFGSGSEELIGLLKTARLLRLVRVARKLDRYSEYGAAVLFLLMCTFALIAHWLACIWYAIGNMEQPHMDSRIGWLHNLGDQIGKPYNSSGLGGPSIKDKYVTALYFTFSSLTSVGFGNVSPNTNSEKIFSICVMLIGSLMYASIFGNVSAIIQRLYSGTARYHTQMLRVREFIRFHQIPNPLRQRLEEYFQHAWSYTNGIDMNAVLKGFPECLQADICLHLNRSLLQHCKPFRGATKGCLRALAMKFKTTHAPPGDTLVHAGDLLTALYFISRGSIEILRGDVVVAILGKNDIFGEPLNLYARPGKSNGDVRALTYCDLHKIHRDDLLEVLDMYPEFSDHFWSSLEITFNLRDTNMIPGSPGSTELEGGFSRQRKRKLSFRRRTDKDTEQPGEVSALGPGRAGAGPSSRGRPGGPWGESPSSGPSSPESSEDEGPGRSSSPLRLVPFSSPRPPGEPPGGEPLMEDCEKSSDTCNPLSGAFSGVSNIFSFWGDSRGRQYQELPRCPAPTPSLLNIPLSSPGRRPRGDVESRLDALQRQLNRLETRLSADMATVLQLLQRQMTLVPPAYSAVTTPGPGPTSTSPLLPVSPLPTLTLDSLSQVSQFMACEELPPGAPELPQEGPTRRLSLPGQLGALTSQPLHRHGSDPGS
Experimental: as §1, §2

[4] = target: T4, wild type KCNQ2 (Homo sapiens, UniProt O43526); experiment: Wild type KCNQ2 (Kv7.2) currents, patch-clamp; settings: NH29
T4 construct: expressed in transfected cells; host or cells: CHO cells (printed for the mutants and in the general method)
T4 sequence (O43526 whole entry): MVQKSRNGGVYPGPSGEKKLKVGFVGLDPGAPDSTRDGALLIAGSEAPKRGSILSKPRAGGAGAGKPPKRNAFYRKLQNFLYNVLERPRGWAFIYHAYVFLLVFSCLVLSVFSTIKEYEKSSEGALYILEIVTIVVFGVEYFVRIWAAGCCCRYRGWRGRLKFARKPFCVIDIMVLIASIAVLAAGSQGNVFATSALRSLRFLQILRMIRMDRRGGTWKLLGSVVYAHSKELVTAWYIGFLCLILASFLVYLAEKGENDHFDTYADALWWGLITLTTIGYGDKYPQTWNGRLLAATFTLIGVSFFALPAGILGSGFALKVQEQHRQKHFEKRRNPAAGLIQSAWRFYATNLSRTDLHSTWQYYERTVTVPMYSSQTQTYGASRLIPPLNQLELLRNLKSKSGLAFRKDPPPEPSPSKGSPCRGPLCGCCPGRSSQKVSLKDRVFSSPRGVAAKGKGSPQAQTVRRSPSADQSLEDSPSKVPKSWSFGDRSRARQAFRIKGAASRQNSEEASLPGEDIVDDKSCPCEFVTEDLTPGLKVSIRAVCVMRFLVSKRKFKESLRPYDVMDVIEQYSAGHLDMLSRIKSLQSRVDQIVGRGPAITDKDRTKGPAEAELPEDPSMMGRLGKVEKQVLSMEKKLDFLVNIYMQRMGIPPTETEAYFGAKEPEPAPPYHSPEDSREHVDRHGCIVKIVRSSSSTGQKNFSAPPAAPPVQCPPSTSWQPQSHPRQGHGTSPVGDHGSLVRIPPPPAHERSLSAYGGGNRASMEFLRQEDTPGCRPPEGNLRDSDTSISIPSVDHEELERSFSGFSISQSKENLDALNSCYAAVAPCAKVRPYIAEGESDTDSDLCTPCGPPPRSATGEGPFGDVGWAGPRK
From the text: FIGS. 10A-D present the potentiating effect of NH29, an exemplary channel opener compound according to embodiments of the present invention, on wild type KCNQ2 (FIGS. 10A and 10B) and R207W mutant (FIGS. 10C and 10D) channels, as expressed in activation curve measurements, showing that NH29 left-shifts the activation curve (ΔV50) by −15.5 mV and −5.5 mV in the case of the wild-type and the mutant, respectively, and showing that NH29 enhances the current of wild-type and the mutant by about 3.4-fold (at −40 mV) and 1.5-fold (at −20 mV), respectively.
Voltage-clamp recordings in CHO cells were performed, using the whole-cell configuration of the patch-clamp technique. Signals were amplified using an Axopatch 200B patch-clamp amplifier (Molecular Devices, Sunnyvale, Calif.), sampled at 2 kHz and filtered at 800 Hz via a 4-pole Bessel low pass filter. Data were acquired using pClamp 9.2 software (Molecular Devices) and an IBM compatible Pentium IV computer in conjunction with a DigiData 1322A interface (Molecular Devices). The patch pipettes were pulled from borosilicate glass (Warner Instrument Corp, USA) with a resistance of 2-5 MΩ. […] Series resistances (3-13 MΩ) were compensated (75-90%) and periodically monitored.

T1 sequence (Q8NER1 whole entry): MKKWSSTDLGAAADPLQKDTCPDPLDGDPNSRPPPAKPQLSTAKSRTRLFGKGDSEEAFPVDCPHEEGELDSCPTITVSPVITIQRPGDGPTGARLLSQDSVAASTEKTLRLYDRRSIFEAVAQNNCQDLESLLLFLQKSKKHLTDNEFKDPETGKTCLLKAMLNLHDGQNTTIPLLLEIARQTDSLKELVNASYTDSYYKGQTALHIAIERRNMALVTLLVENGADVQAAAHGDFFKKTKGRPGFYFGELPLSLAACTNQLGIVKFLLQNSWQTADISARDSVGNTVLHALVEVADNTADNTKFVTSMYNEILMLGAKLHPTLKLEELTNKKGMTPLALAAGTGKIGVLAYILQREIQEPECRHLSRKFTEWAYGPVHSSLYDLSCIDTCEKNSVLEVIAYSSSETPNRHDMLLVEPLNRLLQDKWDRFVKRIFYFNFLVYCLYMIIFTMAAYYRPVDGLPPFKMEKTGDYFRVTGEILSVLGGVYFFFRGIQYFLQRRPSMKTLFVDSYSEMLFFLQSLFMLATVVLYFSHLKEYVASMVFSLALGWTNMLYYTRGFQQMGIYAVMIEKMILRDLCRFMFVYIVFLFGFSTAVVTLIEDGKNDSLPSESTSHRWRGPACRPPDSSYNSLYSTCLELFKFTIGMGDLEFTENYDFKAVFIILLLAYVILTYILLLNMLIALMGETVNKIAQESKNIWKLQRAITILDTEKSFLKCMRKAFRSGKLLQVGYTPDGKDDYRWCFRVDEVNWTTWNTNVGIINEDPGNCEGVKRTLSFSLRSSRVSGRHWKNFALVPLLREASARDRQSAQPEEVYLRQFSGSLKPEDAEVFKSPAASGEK

## O=C(Cc1cc([N+](=O)[O-])cc([N+](=O)[O-])c1Nc1c(Cl)cc([N+](=O)[O-])cc1Cl)NCCO [NH29]
[1]; NH29 at 5-50 M as printed
  inhibition of TRPV1 channels: potently inhibited TRPV1 channels
[1]; 50 μM, reversible
  inhibition of TRPV1 current: almost completely
[2]; 25 μM
  Fold current amplitude: 0.93 ± 0.02 fold
[2]; 50 μM
  Fold current amplitude: 0.72 ± 0.02 fold
[2]; 50 μM, read-out: inhibition of Kv7.1 current
  inhibition at 50 µM: 23%
[3]
  Fold current amplitude: 1.1 ± 0.02 fold
[4]
  left-shift of the activation curve (ΔV50): −15.5 mV
